Measurements reported in patent US8361968B2 (Takeda Pharmaceutical Company Limited, priority 2002, dated 2013).
Square brackets hold non-standard residues; d marks the D form. Peptide text beside a SMILES is read from it. * marks the point of attachment. 2Nal = N[C@@H](Cc1ccc2ccccc2c1)C(=O)O; Arg(Me) = CNC(=N)NCCC[C@H](N)C(=O)O; Fmoc = O=C(OCC1c2ccccc2-c2ccccc21)*; 2Pal = N[C@@H](Cc1ccccn1)C(=O)O; d4Pal = N[C@H](Cc1ccncc1)C(=O)O; azaGly = NNC(=O)O

What follows are molecules tested against hOT7T175 (Homo sapiens, UniProt Q969F8, L364H) (assay: hOT7T175 receptor binding activity: binding inhibition of Cy-5-labeled metastin (40-54) on hOT7T175-expressed CHO cells).
Sequence of hOT7T175 (Q969F8 whole entry L364H): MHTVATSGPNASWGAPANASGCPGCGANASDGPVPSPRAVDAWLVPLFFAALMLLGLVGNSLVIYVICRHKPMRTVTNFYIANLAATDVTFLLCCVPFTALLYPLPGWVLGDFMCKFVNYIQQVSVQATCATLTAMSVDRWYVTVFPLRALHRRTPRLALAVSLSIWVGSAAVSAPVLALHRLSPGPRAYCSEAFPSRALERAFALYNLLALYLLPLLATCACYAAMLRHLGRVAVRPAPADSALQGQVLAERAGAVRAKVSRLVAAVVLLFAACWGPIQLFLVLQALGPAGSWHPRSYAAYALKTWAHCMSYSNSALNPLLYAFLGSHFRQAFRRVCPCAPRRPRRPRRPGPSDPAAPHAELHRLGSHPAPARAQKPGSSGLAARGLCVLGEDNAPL
Parameters: expressed in transfected cells; host or cells: CHO cells
Description: Assay for hOT7T175 Receptor Binding Activity
h0T7T175-Expressed CHO cells were cultured in MEM-cc medium (nucleic acid-free) containing 10% dialyzed serum. The medium was removed and the adherent cells were washed with PBS. Then, PBS containing 5 mM EDTA was added and the cells were scraped from a flask with a cell scraper. […] To each well of a 96-Well Black Clear Bottom Plate (Applied Biosystems, Inc.), 10 μL of assay buffer containing 1% dimethylsulfoxide was added to examine total binding, 10 μL of 10 μM non-labeled peptide (having the same amino acid sequence as that of the labeled one) solution diluted with assay buffer to examine non-specific binding, and 10 μL of a test compound diluted with assay buffer to examine the binding inhibition activity of the test compound, respectively. Furthermore, 90 μL each of the cell suspension was dispensed to each well. […] The specific binding is a value obtained by subtracting the non-specific binding from the total binding.

Q: With `CC(C)C[C@H](NC(=O)CNC(=O)[C@H](Cc1ccccc1)NC(=O)[C@H](CO)NC(=O)[C@H](CC(N)=O)NC(=O)[C@H](Cc1c[nH]c2ccccc12)NC(=O)[C@H](CC(N)=O)NC(=O)[C@@H](N)Cc1ccc(O)cc1)C(=O)N[C@@H](CCCNC(=N)N(C)C)C(=O)N[C@@H](Cc1ccccc1)C(N)=O` [Compound No. 83] as the molecule, how does the IC50 read?
A: Its IC50 is 0.025 µM.

Q: `CNC(=N)NCCC[C@H](NC(=O)[C@H](CC(C)C)NC(=O)CNC(=O)[C@H](Cc1ccccc1)NC(=O)[C@H](CO)NC(=O)[C@H](CC(N)=O)NC(=O)[C@H](Cc1c[nH]c2ccccc12)NC(=O)OCC1c2ccccc2-c2ccccc21)C(=O)N[C@@H](Cc1ccccc1)C(N)=O` [Compound No. 145, Fmoc-Trp-Asn-Ser-Phe-Gly-Leu-Arg(Me)-Phe-NH2] (Fmoc-WNSFGL[Arg(Me)]F-NH2) was tested. Which IC50 did it give?
A: Its IC50 is 0.12 µM.

Q: Which IC50 does the source give for `CC(C)C[C@H](NC(=O)CNC(=O)[C@H](Cc1ccccc1)NC(=O)[C@H](CO)NC(=O)[C@H](CC(N)=O)NC(=O)[C@H](Cc1c[nH]c2ccccc12)NC(=O)[C@@H](N)CC(N)=O)C(=O)N[C@@H](CCCNC(=N)N)C(=O)N[C@@H](Cc1ccccc1)C(N)=O` [Compound No. 4, des(1)-MS10, reference compound] (H-NWNSFGLRF-NH2; N-terminus assumed) here?
A: The IC50 was 0.26 µM.

Q: `CC(C)C[C@H](NC(=O)CNC(=O)[C@H](Cc1ccccc1)NC(=O)[C@H](CO)NC(=O)[C@H](CC(N)=O)NC(=O)[C@H](CC(C)C)NC(=O)[C@H](CC(N)=O)NC(=O)[C@@H](N)Cc1ccc(O)cc1)C(=O)N[C@@H](CCCNC(=N)N)C(=O)N[C@@H](Cc1ccccc1)C(N)=O` [Compound No. 68] (H-YNLNSFGLRF-NH2) was tested. Which IC50 did it give?
A: The IC50 was 0.0077 µM.

Q: For `CNC(N)=NCCC[C@H](NC(=O)[C@H](CC(C)C)NC(=O)NNC(=O)[C@H](Cc1ccccc1)NC(=O)[C@H](CO)NC(=O)[C@H](CC(N)=O)NC(=O)[C@H](Cc1ccccc1)NC(=O)[C@@H](CC(N)=O)NC(=O)[C@H](N)Cc1ccc(O)cc1)C(=O)N[C@@H](Cc1ccccc1)C(N)=O` [Compound No. 257, D-Tyr-D-Asn-Phe-Asn-Ser-Phe-AzaGly-Leu-Arg(Me)-Phe-NH2] (H-[dY][dN]FNSF[azaGly]L[Arg(Me)]F-NH2), which IC50 is on record?
A: Its IC50 is 0.04 µM.

Q: Which IC50 does the source give for `CNC(N)=NCCC[C@H](NC(=O)[C@H](CC(C)C)NC(=O)NNC(=O)[C@H](Cc1ccccc1)NC(=O)[C@H](CO)NC(=O)[C@H](CC(N)=O)NC(=O)[C@H](CO)NC(=O)[C@H](N)Cc1ccc(O)cc1)C(=O)N[C@@H](Cc1ccccc1)C(N)=O` [Compound No. 239, D-Tyr-Ser-Asn-Ser-Phe-AzaGly-Leu-Arg(Me)-Phe-NH2] (H-[dY]SNSF[azaGly]L[Arg(Me)]F-NH2) here?
A: The IC50 was 0.12 µM.

Q: Which IC50 does the source give for `CNC(=N)NCCC[C@H](NC(=O)[C@H](CC(C)C)NC(=O)NNC(=O)[C@H](Cc1ccccc1)NC(=O)[C@H](CO)NC(=O)[C@H](CC(N)=O)NC(=O)[C@@H]1CCCN1C(=O)[C@H](CC(N)=O)NC(=O)[C@H](N)Cc1ccc(O)cc1)C(=O)N[C@@H](Cc1ccccc1)C(N)=O` [Compound No. 253, D-Tyr-Asn-Pro-Asn-Ser-Phe-AzaGly-Leu-Arg(Me)-Phe-NH2] (H-[dY]NPNSF[azaGly]L[Arg(Me)]F-NH2) here?
A: The IC50 was 0.027 µM.

Q: `CC(C)C[C@H](NC(=O)CNC(=O)[C@H](Cc1ccccc1)NC(=O)[C@H](CO)NC(=O)[C@H](CC(N)=O)NC(=O)[C@H](Cc1c[nH]c2ccccc12)NC(=O)[C@H](CC(N)=O)NC(=O)[C@@H](N)Cc1ccc(O)cc1)C(=O)N[C@@H](CCCCN)C(=O)N[C@@H](Cc1ccccc1)C(N)=O` [Compound No. 44] (H-YNWNSFGLKF-NH2) was tested. Which IC50 did it give?
A: Its IC50 is 0.19 µM.

Q: For `CC(C)C[C@H](NC(=O)CNC(=O)[C@H](Cc1ccccc1)NC(=O)[C@H](CO)NC(=O)[C@H](CC(N)=O)NC(=O)[C@H](Cc1c[nH]c2ccccc12)NC(=O)[C@H](CC(C)C)NC(=O)[C@@H](N)Cc1ccc(O)cc1)C(=O)N[C@@H](CCCNC(=N)N)C(=O)N[C@@H](Cc1ccccc1)C(N)=O` [Compound No. 59] (H-YLWNSFGLRF-NH2), which IC50 is on record?
A: Its IC50 is 0.34 µM.

Q: Which IC50 does the source give for `CC(C)C[C@H](NC(=O)CNC(=O)[C@H](Cc1ccccc1)NC(=O)[C@H](CO)NC(=O)[C@H](CC(N)=O)NC(=O)[C@H](C)NC(=O)[C@H](CC(N)=O)NC(=O)[C@@H](N)Cc1ccc(O)cc1)C(=O)N[C@@H](CCCNC(=N)N)C(=O)N[C@@H](Cc1ccccc1)C(N)=O` [Compound No. 67] (H-YNANSFGLRF-NH2) here?
A: The IC50 was 0.027 µM.

Q: How did the IC50 turn out when `CNC(N)=NCCC[C@H](NC(=O)[C@H](CC(C)C)NC(=O)NNC(=O)[C@H](Cc1ccccc1)NC(=O)[C@H](CO)NC(=O)[C@H](CC(N)=O)NC(=O)[C@H](CO)NC(=O)[C@H](CC(N)=O)NC(=O)[C@H](N)Cc1ccc(O)cc1)C(=O)N[C@@H](Cc1ccccc1)C(N)=O` [Compound No. 191, D-Tyr-Asn-Ser-Asn-Ser-Phe-AzaGly-Leu-Arg(Me)-Phe-NH2] (H-[dY]NSNSF[azaGly]L[Arg(Me)]F-NH2) was run?
A: Its IC50 is 0.3 µM.

Q: For `CC(C)C[C@H](NC(=O)CNC(=O)[C@H](Cc1ccccc1)NC(=O)[C@H](CO)NC(=O)[C@H](CC(N)=O)NC(=O)[C@H](Cc1c[nH]c2ccccc12)NC(=O)[C@H](CC(N)=O)NC(=O)[C@H](C)N)C(=O)N[C@@H](CCCNC(=N)N)C(=O)N[C@@H](Cc1ccccc1)C(N)=O` [Compound No. 72] (H-ANWNSFGLRF-NH2), which IC50 is on record?
A: Its IC50 is 0.54 µM.

Q: `CNC(N)=NCCC[C@H](NC(=O)[C@H](CC(C)C)NC(=O)NNC(=O)[C@H](Cc1ccccc1)NC(=O)[C@H](CO)NC(=O)[C@H](CC(N)=O)NC(=O)[C@@H](NC(=O)[C@H](CC(N)=O)NC(=O)[C@H](N)Cc1ccc(O)cc1)[C@@H](C)O)C(=O)N[C@@H](Cc1ccccc1)C(N)=O` [Compound No. 221, D-Tyr-Asn-Thr-Asn-Ser-Phe-AzaGly-Leu-Arg(Me)-Phe-NH2] (H-[dY]NTNSF[azaGly]L[Arg(Me)]F-NH2) was tested. Which IC50 did it give?
A: The IC50 was 0.095 µM.

Q: With `CNC(=N)NCCC[C@H](NC(=O)[C@H](CC(C)C)NC(=O)NNC(=O)[C@H](Cc1ccccc1)NC(=O)[C@H](CO)NC(=O)[C@H](CC(N)=O)NC(=O)[C@H](Cc1ccccn1)NC(=O)[C@H](CC(N)=O)NC(=O)[C@H](N)Cc1ccc(O)cc1)C(=O)N[C@@H](Cc1ccccc1)C(N)=O` [Compound No. 285, D-Tyr-Asn-Pya(2)-Asn-Ser-Phe-AzaGly-Leu-Arg(Me)-Phe-NH2] (H-[dY]N[2Pal]NSF[azaGly]L[Arg(Me)]F-NH2) as the molecule, how does the IC50 read?
A: The IC50 was 0.04 µM.

Q: `C/N=C(/NC)NCCC[C@H](NC(=O)[C@H](CC(C)C)NC(=O)CNC(=O)[C@H](Cc1ccccc1)NC(=O)[C@H](CO)NC(=O)[C@H](CC(N)=O)NC(=O)[C@H](Cc1c[nH]c2ccccc12)NC(=O)[C@H](CC(N)=O)NC(=O)[C@@H](N)Cc1ccc(O)cc1)C(=O)N[C@@H](Cc1ccccc1)C(N)=O` [Compound No. 129] was tested. Which IC50 did it give?
A: Its IC50 is 0.083 µM.

Q: `CNC(N)=NCCC[C@H](NC(=O)[C@H](CC(C)C)NC(=O)NNC(=O)[C@H](Cc1ccccc1)NC(=O)[C@H](CO)NC(=O)[C@H](CC(N)=O)NC(=O)[C@H](Cc1ccc2ccccc2c1)NC(=O)[C@H](N)Cc1ccc(O)cc1)C(=O)N[C@@H](Cc1ccccc1)C(N)=O` [Compound No. 255, D-Tyr-Nal(2)-Asn-Ser-Phe-AzaGly-Leu-Arg(Me)-Phe-NH2] (H-[dY][2Nal]NSF[azaGly]L[Arg(Me)]F-NH2) was tested. Which IC50 did it give?
A: The IC50 was 0.033 µM.

Q: `CC(C)C[C@H](NC(=O)CNC(=O)[C@H](Cc1ccc(O)cc1)NC(=O)[C@H](CO)NC(=O)[C@H](CC(N)=O)NC(=O)[C@H](Cc1c[nH]c2ccccc12)NC(=O)[C@H](CC(N)=O)NC(=O)[C@@H](N)Cc1ccc(O)cc1)C(=O)N[C@@H](CCCNC(=N)N)C(=O)N[C@@H](Cc1ccccc1)C(N)=O` [Compound No. 150] (H-YNWNSYGLRF-NH2) was tested. Which IC50 did it give?
A: The IC50 was 0.32 µM.

Q: Which IC50 does the source give for `CC[C@H](C)[C@H](NC(=O)[C@H](N)Cc1ccc(O)cc1)C(=O)N[C@@H](CC(N)=O)C(=O)N[C@@H](CO)C(=O)N[C@@H](Cc1ccccc1)C(=O)NNC(=O)N[C@@H](CC(C)C)C(=O)N[C@@H](CCCNC(=N)NC)C(=O)N[C@@H](Cc1ccccc1)C(N)=O` [Compound No. 240, D-Tyr-Ile-Asn-Ser-Phe-AzaGly-Leu-Arg(Me)-Phe-NH2] (H-[dY]INSF[azaGly]L[Arg(Me)]F-NH2) here?
A: The IC50 was 0.017 µM.

Q: For `CNC(=N)NCCC[C@H](NC(=O)[C@H](CC(C)C)NC(=O)NNC(=O)[C@H](Cc1ccccc1)NC(=O)[C@H](CO)NC(=O)[C@H](CC(N)=O)NC(=O)[C@H](CCCNC(=N)N)NC(C)=O)C(=O)N[C@@H](Cc1ccccc1)C(N)=O` [Compound No. 275, Acetyl-Arg-Asn-Ser-Phe-AzaGly-Leu-Arg(Me)-Phe-NH2] (Ac-RNSF[azaGly]L[Arg(Me)]F-NH2), which IC50 is on record?
A: Its IC50 is 0.41 µM.

Q: With `CC(C)C[C@H](NC(=O)CNC(=O)[C@H](Cc1ccccc1)NC(=O)[C@H](CO)NC(=O)[C@H](CC(N)=O)NC(=O)[C@H](CO)NC(=O)[C@H](CC(N)=O)NC(=O)[C@@H](N)Cc1ccc(O)cc1)C(=O)N[C@@H](CCCNC(=N)N)C(=O)N[C@@H](Cc1ccccc1)C(N)=O` [Compound No. 69] (H-YNSNSFGLRF-NH2) as the molecule, how does the IC50 read?
A: Its IC50 is 0.083 µM.

Q: How did the IC50 turn out when `CNC(=N)NCCC[C@H](NC(=O)[C@H](CC(C)C)NC(=O)CNC(=O)[C@H](Cc1ccccc1)NC(=O)[C@H](CO)NC(=O)[C@H](CC(N)=O)NC(=O)[C@@H](Cc1c[nH]c2ccccc12)NC(=O)[C@H](N)CC(N)=O)C(=O)N[C@@H](Cc1ccccc1)C(N)=O` [Compound No. 225, D-Asn-D-Trp-Asn-Ser-Phe-Gly-Leu-Arg(Me)-Phe-NH2] (H-[dN][dW]NSFGL[Arg(Me)]F-NH2) was run?
A: The IC50 was 0.41 µM.

Q: How did the IC50 turn out when `CNC(N)=NCCC[C@H](NC(=O)[C@H](CC(C)C)NC(=O)NNC(=O)[C@H](Cc1ccccc1)NC(=O)[C@H](CO)NC(=O)[C@H](CC(N)=O)NC(=O)[C@@H](Cc1ccncc1)NC(=O)[C@H](CC(N)=O)NC(=O)[C@H](N)Cc1ccc(O)cc1)C(=O)N[C@@H](Cc1ccccc1)C(N)=O` [Compound No. 302, D-Tyr-Asn-D-Pya(4)-Asn-Ser-Phe-AzaGly-Leu-Arg(Me)-Phe-NH2] (H-[dY]N[d4Pal]NSF[azaGly]L[Arg(Me)]F-NH2) was run?
A: The IC50 was 0.0077 µM.
